This is an account of results in article PMC5378280 (Cancer Science, 2017).

Molecules are shown by their SMILES.

The nature of data set [1]: Pharmacokinetics of carfilzomib in plasma. The following applies: compared with carfilzomib monotherapy study. In kind it is in vivo, human.
For the next data set, the system named is Japanese RRMM patients. The following applies: carfilzomib monotherapy; cited from earlier work.

As for `CC(C)C[C@H](NC(=O)[C@H](CCc1ccccc1)NC(=O)CN1CCOCC1)C(=O)N[C@@H](Cc1ccccc1)C(=O)N[C@@H](CC(C)C)C(=O)[C@@]1(C)CO1` [carfilzomib], the “Effect of lenalidomide and dexamethasone on carfilzomib pharmacokinetics” value in data set [1] is listed as “did not appear to be affected”. In the data set with Japanese RRMM patients, the ORR was 22.5%.
